These results are taken from publication PMC2810346 (Journal of the American Chemical Society, 2010).

Data set [1] concerns HIF-1α induced transcription of VEGF gene in HeLa cells. The settings on record: ref [18]; cited from earlier work.
Data set [2] is classed as physicochemical. Conditions: 10% trifluoroethanol in phosphate buffered saline (pH 6.3); for % helicity: circular dichroism, estimated from mean residue ellipticity at 222 nm.
For data set [3], the system named is HIF-1α induced transcription of VEGF gene in HeLa cells. Type of data set: cell-based. The settings on record: qRT-PCR, hypoxic conditions (DFO), 12 and 24 h incubation. On the technique in general: Quantitative PCR measures a nucleic acid by following its amplification.
Data set [4] concerns the target GST-p300 (p300 CH1 domain) (Homo sapiens, UniProt Q09472). In words: Isothermal titration microcalorimetry. The data set is classed as binding. Conditions: for affinity for GST-p300 (in words): isothermal titration microcalorimetry. (In general: ITC needs no label: the signal is the heat of the interaction.)
Data set [5] has as its system GST-p300; CH1 domains of CBP (or p300). Briefly: CD spectrum of GST-p300 / CH1 structural change on addition of compound. Conditions: circular dichroism of GST-p300 with HBS 2 added. In general terms: CD spectra are sensitive to the conformation of chiral molecules.
The test system of data set [6] is cell density and population doubling. In words: Cell viability assay. Type of data set: cell-based. The settings on record: monitored up to 72 h, 1 μM peptide, 200 nM chetomin.

Broadly, the Kd is the equilibrium constant for the complex coming apart.

Structures are written as SMILES. Peptide text beside a SMILES is read from it.

Chain of GST-p300 (p300 CH1 domain) (Q09472 331-417 limits assumed): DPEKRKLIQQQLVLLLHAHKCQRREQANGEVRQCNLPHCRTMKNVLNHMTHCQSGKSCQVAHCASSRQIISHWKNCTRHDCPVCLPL

Turning to `CN1C(=O)[C@]2(Cc3cn([C@]45C[C@@]67SS[C@@](CO)(C(=O)N6[C@H]4Nc4ccccc45)N(C)C7=O)c4ccccc34)SS[C@@]1(CO)C(=O)N2C` [chetomin], the “inhibition of VEGF transcription, literature (in words)” value in data set [1] is reported as “known potent inhibitor of VEGF transcription”.

Take `C[C@H](NC(=O)[C@H](CC(N)=O)NC(=O)[C@H](Cc1ccc(O)cc1)NC(=O)[C@H](CCC(=O)O)NC(=O)[C@H](CS)NC(=O)[C@H](CC(=O)O)NC(=O)[C@H](C)N1C/C=C/CCC(=O)N[C@@H]([C@@H](C)O)C(=O)N[C@@H](C)C1=O)C(N)=O` [compound 1]: in data set [2], the “% helicity” value is reported as 40%. For the same compound, in data set [3], the “inhibition of VEGF transcription (in words)” value is “did not show measurable inhibition of transcription”. Also, the “affinity for GST-p300 (in words)” value in data set [4] is on record as “submicromolar affinity”.

As for `C[C@H](NC(=O)[C@H](CC(N)=O)NC(=O)[C@H](Cc1ccc(O)cc1)NC(=O)[C@H](CCC(=O)O)NC(=O)[C@H](CS)NC(=O)[C@H](CC(=O)O)NC(=O)[C@H](C)N1C/C=C/CCC(=O)N[C@@H]([C@@H](C)O)C(=O)N[C@@H](C)C1=O)C(=O)N[C@@H](CCCNC(=N)N)C(N)=O` [compound 2], the “solution conformation by CD (in words)” value in data set [2] (listed as HBS 2) is “more helical than HBS 1”. In addition, the “% helicity” value in data set [2] is 53%. Moreover, the “effect on CD spectrum of GST-p300 (in words)” value in data set [5] is “does not alter the CD spectrum of GST-p300”. In data set [6], the “cytotoxicity (in words)” value is “does not display significant cytotoxicity”. In data set [4], the “affinity for GST-p300 (in words)” value is on record as “does not have a detrimental effect on the ability of HBS 2 to bind GST-p300”.

For `CC(=O)N[C@H](C(=O)N[C@@H](C)C(=O)N[C@@H](C)C(=O)N[C@@H](CC(=O)O)C(=O)N[C@@H](CS)C(=O)N[C@@H](CCC(=O)O)C(=O)N[C@@H](Cc1ccc(O)cc1)C(=O)N[C@@H](CC(N)=O)C(=O)N[C@@H](C)C(=O)N[C@@H](CCCNC(=N)N)C(=O)O)[C@@H](C)O` [compound 4] (Ac-TAADCEYNAR-OH), the dissociation constant (Kd) in data set [4] is 825 ± 50 nM.
